{"source": "ChEMBL document CHEMBL4311972", "about": "“Discovery of a benzothiophene-flavonol halting miltefosine and antimonial drug resistance in Leishmania parasites through the application of medicinal chemistry, screening and genomics” (Eur J Med Chem, 2019)", "key": {"[1]": {"tested_on": "Leishmania infantum", "assay": "Antileishmanial activity against Leishmania infantum amastigotes infected in Syrian hamster assessed as reduction in parasite load at 40 mg/kg/day, po for 10 days formulated with 30% v/v cyclodextrin relative to control", "format": "functional", "details": "240 h"}, "[2]": {"biological_target": "T1, Albumin (Homo sapiens, UniProt P02768)", "T1 sequence (P02768 whole entry)": "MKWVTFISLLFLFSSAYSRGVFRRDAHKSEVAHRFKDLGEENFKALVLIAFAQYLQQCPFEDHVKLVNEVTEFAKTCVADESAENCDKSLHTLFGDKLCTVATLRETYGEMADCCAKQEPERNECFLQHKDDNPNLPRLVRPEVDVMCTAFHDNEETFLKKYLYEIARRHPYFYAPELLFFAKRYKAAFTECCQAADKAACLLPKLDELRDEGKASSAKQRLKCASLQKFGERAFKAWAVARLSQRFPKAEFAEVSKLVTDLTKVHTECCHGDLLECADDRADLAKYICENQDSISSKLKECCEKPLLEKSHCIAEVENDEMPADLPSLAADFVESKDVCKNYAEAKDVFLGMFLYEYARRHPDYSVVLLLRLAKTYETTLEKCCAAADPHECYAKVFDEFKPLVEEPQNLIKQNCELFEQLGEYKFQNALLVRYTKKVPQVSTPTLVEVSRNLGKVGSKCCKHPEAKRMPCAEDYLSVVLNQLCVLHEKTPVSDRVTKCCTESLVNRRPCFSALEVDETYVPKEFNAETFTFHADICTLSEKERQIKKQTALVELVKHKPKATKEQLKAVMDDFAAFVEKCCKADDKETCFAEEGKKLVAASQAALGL", "assay": "Binding affinity to human serum albumin by fluorescence based assay", "format": "ADME"}, "[3]": {"assay": "Chemical stability of compound in PBS at 20 uM at pH 8 exposed to 2-mins nitrogen bubbling followed by supplementation with human serum albumin measured for 6 hrs by UV-vis spectrophotometry analysis", "format": "physicochemical"}, "[4]": {"assay": "Chemical stability of compound in DMSO at 60 uM assessed as drug degradation measured at room temperature in dark after 1 day by UV-vis spectrophotometric analysis", "format": "physicochemical", "details": "read-out: Drug degradation"}, "[5]": {"tested_on": "Leishmania infantum", "assay": "Antileishmanial activity against Leishmania infantum amastigotes infected in Syrian hamster assessed as parasite load within spleen at 40 mg/kg/day, po for 10 days formulated with 50% v/v cyclodextrin (reference value: 8508698.676 +/- 2835609.487/g)", "format": "functional"}, "[6]": {"tested_on": "Leishmania donovani", "assay": "Antileishmanial activity against antimony resistant Leishmania donovani BPK190 promastigotes infected in C57BL/6 mouse bone marrow-derived macrophages assessed as reduction in parasite load at 10 uM treated with compound at 24 hrs post-infection measured after 72 hrs post infection by q-PCR analysis relative to control", "format": "functional"}, "[7]": {"assay": "Toxicity in Syrian hamster infected with Leishmania infantum BCN150 promastigotes assessed as spleen weight at 40 mg/kg/day, po for 10 days formulated with 50% v/v cyclodextrin (reference value: 0.191 +/- 0.061 g)", "format": "organism-based, Mesocricetus auratus", "details": "in vivo, 240 h"}, "[8]": {"assay": "Toxicity in Syrian hamster infected with Leishmania infantum BCN150 promastigotes assessed as spleen weight at 40 mg/kg/day, po for 10 days formulated with 30% v/v cyclodextrin (reference value: 0.183 +/- 0.04 g)", "format": "organism-based, Mesocricetus auratus", "details": "in vivo, 240 h"}, "[9]": {"assay": "Toxicity in Syrian hamster infected with Leishmania infantum BCN150 promastigotes assessed as adverse effects at 20 mg/kg/every 12 hrs, po for 10 days formulated with 50% v/v cyclodextrin measured daily", "format": "organism-based, Mesocricetus auratus", "details": "in vivo"}, "[10]": {"assay": "Cmax in BALB/c mouse at 1 mg/kg, iv measured upto 72 hrs by snapshot method", "format": "ADME, organism-based", "set-up": "dose 1 mg/kg, route intravenous", "details": "in vivo"}, "[11]": {"assay": "Tmax in BALB/c mouse at 1 mg/kg, iv measured upto 72 hrs by snapshot method", "format": "ADME, organism-based", "details": "in vivo"}, "[12]": {"tested_on": "hERG", "assay": "Selectivity ratio of IC50 for human ERG to EC50 for antileishmanial activity against luciferase expressing intracellular amastigote stage of Leishmania infantum infected in human THP1 cells", "format": "toxicity, cell-based"}, "[13]": {"tested_on": "WI-38", "assay": "Cytostatic activity against human WI38 cells assessed as reduction in cell growth incubated for 48 hrs by Celltiter-Glo luminescence assay", "format": "cell-based", "details": "wi-38, 48 h"}, "[14]": {"assay": "Toxicity in Syrian hamster infected with Leishmania infantum BCN150 promastigotes assessed as liver weight at 40 mg/kg/day, po for 10 days formulated with 8% v/v DMSO (reference value: 5.874 +/- 0.414 g)", "format": "organism-based, Mesocricetus auratus", "details": "in vivo, 240 h"}, "[15]": {"assay": "Toxicity in Syrian hamster infected with Leishmania infantum BCN150 promastigotes assessed as effect on plasma urea level at 40 mg/kg/day, po for 10 days formulated with 8% v/v DMSO", "format": "organism-based, Mesocricetus auratus", "details": "in vivo, 240 h"}, "[16]": {"tested_on": "WI-38", "assay": "Cytotoxicity against human WI38 cells incubated for 48 hrs by Celltiter-Glo luminescence assay", "format": "cell-based", "details": "wi-38, 48 h"}, "[17]": {"assay": "Chemical stability of compound in PBS assessed as decrease in absorbance at 60 uM at pH 7 to 8 measured after exposure to daylight by UV-vis spectrophotometry analysis", "format": "physicochemical", "details": "buffer, pH 7, 60 µM"}, "[18]": {"biological_target": "T1, Albumin", "assay": "Binding affinity to human serum albumin in phosphate buffer assessed as increase in emission intensity at 530-550 nm at 5 uM measured at pH 8 at albumin concentration of 2 uM by fluorescence emission spectrum analysis", "format": "ADME", "details": "isolated protein, pH 8, 5 µM"}, "[19]": {"biological_target": "Albumin (Bos taurus, UniProt P02769)", "sequence (P02769 whole entry)": "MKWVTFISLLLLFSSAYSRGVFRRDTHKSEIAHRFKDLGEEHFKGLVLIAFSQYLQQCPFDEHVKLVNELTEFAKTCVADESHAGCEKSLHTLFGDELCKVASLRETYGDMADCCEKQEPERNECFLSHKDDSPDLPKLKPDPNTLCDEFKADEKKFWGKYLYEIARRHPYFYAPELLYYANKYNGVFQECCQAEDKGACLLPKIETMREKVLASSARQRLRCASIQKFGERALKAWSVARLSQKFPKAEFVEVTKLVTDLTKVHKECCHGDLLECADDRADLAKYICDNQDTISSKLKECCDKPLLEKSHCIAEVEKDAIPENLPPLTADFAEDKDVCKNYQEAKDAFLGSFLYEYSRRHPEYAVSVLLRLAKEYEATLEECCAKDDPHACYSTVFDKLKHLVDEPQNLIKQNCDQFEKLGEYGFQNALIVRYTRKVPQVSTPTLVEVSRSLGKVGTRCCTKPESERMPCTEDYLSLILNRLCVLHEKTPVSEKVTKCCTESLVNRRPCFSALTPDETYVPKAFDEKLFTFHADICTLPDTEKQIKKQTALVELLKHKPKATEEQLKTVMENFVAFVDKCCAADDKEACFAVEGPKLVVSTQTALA", "assay": "Binding affinity to bovine serum albumin in phosphate buffer assessed as increase in emission intensity at 530-550 nm at 5 uM measured at pH 8 at albumin concentration of 12 uM by fluorescence emission spectrum analysis", "format": "ADME", "details": "cattle, isolated protein, pH 8, 5 µM"}, "[20]": {"biological_target": "T2, Beta-casein (Bos taurus, UniProt P02666)", "T2 sequence (P02666 whole entry)": "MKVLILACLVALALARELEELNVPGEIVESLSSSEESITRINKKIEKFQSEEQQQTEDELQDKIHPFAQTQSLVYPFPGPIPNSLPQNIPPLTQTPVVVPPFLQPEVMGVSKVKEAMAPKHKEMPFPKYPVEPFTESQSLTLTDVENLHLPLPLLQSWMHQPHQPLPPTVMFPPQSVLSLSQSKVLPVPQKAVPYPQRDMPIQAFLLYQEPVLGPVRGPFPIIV", "assay": "Binding affinity to bovine milk beta-casein in phosphate buffer assessed as compound lifetime at 530 nm at 5 uM measured at pH 8 by fluorescence emission spectrum analysis", "format": "ADME", "details": "cattle"}, "[21]": {"assay": "Toxicity in Syrian hamster infected with Leishmania infantum BCN150 promastigotes assessed as spleen lesions at 40 mg/kg/day, po for 10 days formulated with 30 to 50% v/v cyclodextrin measured under necropsy", "format": "organism-based, Mesocricetus auratus", "details": "in vivo, 240 h"}, "[22]": {"tested_on": "Leishmania infantum", "assay": "Antileishmanial activity against Leishmania infantum amastigotes infected in Syrian hamster assessed as parasite load within spleen at 20 mg/kg/day, po for 10 days (reference value: 9151063.431 +/- 2606154.975/g)", "format": "functional"}, "[23]": {"tested_on": "Leishmania infantum", "assay": "Antileishmanial activity against Leishmania infantum amastigotes infected in Syrian hamster assessed as reduction in parasite load in spleen at 20 mg/kg/day, po for 10 days relative to control", "format": "functional", "details": "240 h"}, "[24]": {"assay": "Toxicity in Syrian hamster infected with Leishmania infantum BCN150 promastigotes assessed as liver weight at 20 mg/kg/day, po for 10 days (reference value: 5.874 +/- 0.414 g)", "format": "organism-based, Mesocricetus auratus", "details": "in vivo, 240 h"}, "[25]": {"assay": "Toxicity in Syrian hamster infected with Leishmania infantum BCN150 promastigotes assessed as itching effect at 20 mg/kg/day, po for 10 days measured daily", "format": "organism-based, Mesocricetus auratus", "details": "in vivo, 240 h"}, "[26]": {"assay": "Toxicity in Syrian hamster infected with Leishmania infantum BCN150 promastigotes assessed as distress effect at 20 mg/kg/day, po for 10 days measured daily", "format": "organism-based, Mesocricetus auratus", "details": "in vivo, 240 h"}, "[27]": {"tested_on": "Leishmania donovani", "assay": "Antileishmanial activity against Leishmania donovani 1SR promastigotes assessed as parasite growth at IC50 concentration incubated with compound for 3 days under selective pressure and selection cycle repeated 10 times for total of 33 days and measured at 3 to 33 days of selection", "format": "functional, organism-based"}, "[28]": {"assay": "Plasma concentration in syrian hamster infected with Leishmania infantum BCN150 promastigote at 20 mg/kg/day, po for 10 days", "format": "ADME, organism-based, Mesocricetus auratus"}, "[29]": {"assay": "Toxicity in Syrian hamster infected with Leishmania infantum BCN150 promastigotes assessed as effect on ALT level at 20 mg/kg/day, po for 10 days measured after the last treatment", "format": "organism-based, Mesocricetus auratus", "details": "in vivo, 240 h"}, "[30]": {"assay": "Toxicity in Syrian hamster infected with Leishmania infantum BCN150 promastigotes assessed as effect on plasma creatinine level at 20 mg/kg/day, po for 10 days measured after the last treatment", "format": "organism-based, Mesocricetus auratus", "details": "in vivo, 240 h"}}, "note": "Values joined by “and” are separate entries in the source; they are usually repeats but may differ in a detail not shown here. Equal entries are not always repeated. Active and inactive are the calls of the source. The rule behind the calls is not given here."}
{"smiles": "COc1ccc2oc(-c3csc4ccccc34)c(O)c(=O)c2c1", "values": [{"measurement": "inhibition in vivo at 40 mg/kg/day", "setting": "[1]", "result": 28.8, "unit": "%"}, {"measurement": "Kd", "setting": "[2]", "result": "< 10", "unit": "µM"}, {"measurement": "Stability", "setting": "[3]", "result": "Stable"}, {"measurement": "degraded at 24 h, 60 µM", "setting": "[4]", "result": 1, "unit": "%"}, {"measurement": "Activity", "setting": "[5]", "result": 5465832.19, "unit": "g⁻¹"}, {"measurement": "inhibition at 10 µM", "setting": "[6]", "result": 69, "unit": "%"}, {"measurement": "Activity", "setting": "[7]", "result": 0.191, "unit": "g"}, {"measurement": "Activity", "setting": "[8]", "result": 0.719, "unit": "g"}, {"measurement": "Activity", "setting": "[9]", "result": "Non-Toxic"}, {"measurement": "Cmax", "setting": "[10]", "result": "4.76 µM and 1540 ng/mL"}, {"measurement": "Tmax", "setting": "[11]", "result": 4.8, "unit": "min"}, {"measurement": "selectivity ratio", "setting": "[12]", "result": 50}, {"measurement": "Activity", "setting": "[13]", "result": "Toxic"}, {"measurement": "Activity", "setting": "[14]", "result": 5.444, "unit": "g"}, {"measurement": "Activity", "setting": "[15]", "result": "Non-Toxic"}, {"measurement": "Activity", "setting": "[16]", "result": "Non-Toxic"}, {"measurement": "Stability", "setting": "[17]", "result": "Unstable"}, {"measurement": "Activity", "setting": "[18]", "result": 50, "unit": "%"}, {"measurement": "Activity", "setting": "[19]", "result": 50, "unit": "%"}, {"measurement": "Time", "setting": "[20]", "result": 5.5, "unit": "nanoseconds"}, {"measurement": "Activity", "setting": "[21]", "result": "Non-Toxic"}]}
{"smiles": "CCCCCCCCCCCCCCCCOP(=O)([O-])OCC[N+](C)(C)C", "note": "[MILTEFOSINE]", "values": [{"measurement": "Activity", "setting": "[22]", "result": 244476.109, "unit": "g⁻¹"}, {"measurement": "inhibition in vivo at 20 mg/kg/day", "setting": "[23]", "result": 97.3, "unit": "%"}, {"measurement": "Activity", "setting": "[24]", "result": 5.996, "unit": "g"}, {"measurement": "Activity", "setting": "[25]", "result": "Toxic"}, {"measurement": "Activity", "setting": "[26]", "result": "Toxic"}, {"measurement": "inhibition", "setting": "[27]", "result": "inactive"}, {"measurement": "concentration at 240 h", "setting": "[28]", "result": 59.3, "unit": "µM"}, {"measurement": "Activity", "setting": "[29]", "result": "Non-Toxic"}, {"measurement": "Activity", "setting": "[30]", "result": "Non-Toxic"}]}
